Measured values from PubChem BioAssay (NCI).
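Five concentrations, 48 hours, 96-well plates. At the GI50, growth is halved. TGI marks complete inhibition of growth.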

Legend:
Test in all cases: NCI anticancer screen, dose series, 48 h
[1] = system: OVCAR-5 ovarian
[2] = system: SF-539 CNS
[3] = system: UO-31 renal
[4] = system: SK-MEL-5 melanoma
[5] = system: SW-620 colon
[6] = system: HOP-92 NSCLC
[7] = system: SF-295 CNS
[8] = system: COLO 205 colon
[9] = system: A549 NSCLC
[10] = system: CAKI-1 renal
[11] = system: BT-549 breast
[12] = system: TK-10 renal
[13] = system: HS 578T breast

SMILES	TGI [1]	TGI [2]	TGI [3]	TGI [4]	TGI [5]	TGI [6]	TGI [7]	TGI [8]	TGI [9]	TGI [10]	TGI [11]	TGI [12]	TGI [13]	GI50 [10]	GI50 [2]	GI50 [5]	GI50 [6]	GI50 [12]	GI50 [13]
Nc1ccc(N=Nc2ccc(/C=C/c3ccc(N=Nc4ccc(N)c5ccc(S(=O)(=O)O)cc45)cc3S(=O)(=O)O)c(S(=O)(=O)O)c2)c2cc(S(=O)(=O)O)ccc12	> 100 µM	> 100 µM	> 100 µM	> 100 µM	> 100 µM	> 100 µM	> 100 µM	> 100 µM	> 100 µM										
O=c1c2cc(I)ccc2nc(-c2cccs2)n1Nc1ccccc1	> 100 µM	> 100 µM	> 100 µM	> 100 µM	> 100 µM		32.9 µM	3.66 µM	> 100 µM	65.9 µM	> 100 µM								
CC1CN=C(NCc2ccccc2)S1 (configuration not stated)	> 100 µM	> 100 µM	> 100 µM								> 100 µM	> 100 µM	> 100 µM						
COc1cc(/C=C2\CCCC3=C2NC(N)=NC3c2cc(OC)c(OC)c(OC)c2)cc(OC)c1OC (configuration not stated)		> 100 µM			3.51 µM	5.74 µM				7.69 µM		7.23 µM	7.62 µM	1.44 µM	3.27 µM	1.08 µM	1.58 µM	3.24 µM	0.554 µM
